From patent US20020115724A1, “Methods and agents for inhibiting protein aging” (priority 1985, published 2002)
Counter-ions that a name gives are not always drawn. Like-named read-outs stand apart in the source and are kept apart here.

How the values were obtained:
normal and diabetic rats [1] = assay: Aorta collagen solubility (acetic acid, CNBr, pepsin); format: in vivo, rat; conditions: 25 mg/kg daily i.p., 16 weeks
Protocol: (§1) The experiment consisted of giving both normal and diabetic rats daily intraperitoneal doses of the agent aminoguanidine hydrochloride at a dose of 25 mg per kilogram of body weight, for a period of 16 weeks. […] Diabetes was induced prior to drug therapy with a single dose of streptozotocin. Control animals, both diabetic and normal, received no drug.
Aorta samples from the same groups of animals described in Example IV above were subjected to analysis for Advanced Glycosylation Endproducts (A.G.E.) content and solubility.
Aortas were finely minced with dissecting scissors, delipidated with 5 mL of chloroform: methanol (2:1), washed 5 times with buffer, and divided into aliquots for the following assessments of cross-linking:
(B) Solubility in 0.5M acetic acid was determined after 2 hours of extraction at 25° C. and 24 hours at 4° C.
(C) Solubility after cyanogen bromide cleavage at 30° C. for 18 hours was determined.
(D) Solubility after degradation by pepsin (1.0 mg/mL) in 0.1 M acetate buffer, pH 4.1, at 37° C. for 48 hours.
After treatment for the prescribed period, soluble material was separated from insoluble material by centrifugation (50,000× g, 1 hour), and all fractions were lyophilized and hydrolyzed in 6M HCl for determination of total hydroxyproline.

normal and diabetic rats [2] = assay: Cross-linking of lipoprotein to aorta collagen, ELISA for apolipoprotein-B; format: in vivo, rat; conditions: 25 mg/kg daily i.p., 16 weeks
Protocol: as §1
Aorta samples from the same group of animals described in Example IV above, were subjected to analysis for cross-linking of lipoprotein to collagen, using an enzyme immunoassay. A standard ELISA procedure was employed, using antiserum to rat apoliproprotein-B raised in rabbits, peroxidase-labeled anti-rabbit antibody, and standard chromogenic reagents to detect quantity of antibody bound.

Laminin B1 mRNA = conditions: diabetic rats; cited from earlier work
[3] = system: diabetic New Zealand white rabbits; assay: Red blood cell deformability in long-term diabetic rabbits; format: in vivo, rabbit; conditions: for Red Blood Cell Deformability Index: diabetic rabbits, 100 mg/kg/day oral gavage
Description: New Zealand white rabbits, with induced, long-term diabetes (12.7±3.2 months) are used to study the effects of a test compound on red blood cell (RBC) deformability. If glucose-mediated crosslinking of red blood cell components results in less deformable, more rigid membrane, then therapy should prevent this change in new red cells. Red blood cells already in existence at the initiation of therapy would be unaffected; because RBCs are replaced frequently newly formed red blood cells would be exposed to the therapy. […] The test compound is administered at a rate of 100 mg/kg/day by oral gavage.
The deformability index (DI) (filtration rate of buffer/filtrate rate of suspended RBCs; hematocrit=4.0%) is used as a measure of RBC deformability. Buffer and suspended RBCs are filtered through a 3 μ micropore membrane (Nucleopore Corp., Pleasanton, Calif.) with a pressure of […] at 37° C. A reference range for RBC deformability (2.67 to 4.84, mean 4.02±0.69) and % hemoglobin glycosylation (1.7 to 3.96, mean 2.60±0.70) is obtained from a group of normal New Zealand white rabbits (n=14), matched for age, sex and weight.
The results are given in Table III, below for diabetic New Zealand white rabbits dosed with 100 mg/kg/day aminoguanidine.

rats = conditions: hydrochloride, cited from earlier work; for toxicity in animals: in words
gelatin (collagen) = assay: Protein trapping: radioiodinated albumin bound to gelatin (collagen) agarose beads with glucose-6-phosphate; format: biochemical; conditions: agent 200 mN, 400 mN glucose-6-phosphate, two weeks, 37° C.
Description: To more precisely measure the effect of the agents on the inhibition of protein crosslinking, an assay system was devised to measure the extent of in vitro binding of a soluble protein to an insoluble protein. This assay system mimics the events which occur in tissues in which serum proteins become bound to proteins in extravascular matrix and which lead to accumulation of protein and narrowing of vessel lumina in several other tissues. These events in vivo give rise to kidney disease and atherosclerotic disease, and lead to the pathologies associated with diabetes and aging.
To measure protein trapping (i.e., binding or accumulation), gelatin (collagen) was coupled to activated agarose beads (Affigel 10, Bio-Red Laboratories) by routine methods. After coupling, all remaining active sites on the beads were quenched by reaction with glycine ethyl ester.
The beads were incubated for two weeks with bovine serum albumin and 400 mN glucose-6-phosphate, a more reactive form of glucose which forms early glycosylation products with proteins more rapidly than does glucose. […] The bovine serum albumin was radioiodinated so that the amount which became bound to the beads could be measured. […]
After a two-week incubation of the reaction mixtures at 37° C., the beads were washed extensively with chaotropic agents and the covalently bound radioactivity was determined. […]

Q: Which “Percent collagen solubilized by 0.5 M acetic acid” value (normal and diabetic rats [1]; diabetic rats) does the source give for `N=C(N)NN` [aminoguanidine hydrochloride] here?
A: 12.6 ± 0.3%

Q: What about the “Percent collagen solubilized by CNBr” value (normal and diabetic rats [1]; diabetic rats) of the same compound?
A: 10.6 ± 0.1%

Q: What about the “Percent collagen solubilized by Pepsin” value (normal and diabetic rats [1]; diabetic rats) of the same compound?
A: 46.1 ± 0.4%

Q: What about the “Percent collagen solubilized by 0.5 M acetic acid” value (normal and diabetic rats [1]; normal rats) of the same compound?
A: 18.7 ± 0.3%

Q: And the “Percent collagen solubilized by CNBr” value (normal and diabetic rats [1]; normal rats)?
A: 13.6 ± 0.3%

Q: And the “Percent collagen solubilized by Pepsin” value (normal and diabetic rats [1]; normal rats)?
A: 52.5 ± 0.2%

Q: What about the “LIPOPROTEIN BOUND PER MG COLLAGEN” value (normal and diabetic rats [2]; diabetic rats) of the same compound?
A: 0.64

Q: What about the “LIPOPROTEIN BOUND PER MG COLLAGEN” value (normal and diabetic rats [2]; normal rats) of the same compound?
A: 0.53

Q: And the “diabetes-induced increase in laminin mRNA in the kidney” value (Laminin B1 mRNA)?
A: prevents the diabetes-induced increase in laminin MRNA in the kidney

Q: What about the “Red Blood Cell Deformability Index” value ([3]; 0 weeks of dosing (baseline)) of the same compound?
A: 18.32 ± 6.03

Q: What about the “Red Blood Cell Deformability Index” value ([3]; 4 weeks of dosing) of the same compound?
A: 7.17 ± 3.12

Q: What about the “Red Blood Cell Deformability Index” value ([3]; 8 weeks of dosing) of the same compound?
A: 6.83 ± 2.97

Q: What about the “Red Blood Cell Deformability Index” value ([3]; 12 weeks of dosing) of the same compound?
A: 4.64 ± 1.58

Q: And the “Red Blood Cell Deformability Index” value ([3]; 16 weeks of dosing)?
A: 4.44 ± 1.33

Q: What about the “Red Blood Cell Deformability Index” value ([3]; 20 weeks of dosing) of the same compound?
A: 4.14 ± 1.06

Q: What about the “effect on diabetes-induced increased deformability index” value ([3]; long-term diabetic rabbits, delayed treatment) of the same compound?
A: to normal after 12 weeks

Q: What about the “RBC deformability index” value ([3]; separate experiment, daily administration from the time of induction of diabetes) of the same compound?
A: never became abnormal

Q: What about the toxicity in animals (rats) of the same compound?
A: low toxicity in animals

Q: What about the toxicity in animals (rats; listed as hydrochloride derivative) of the same compound?
A: very low toxicity

Q: And the LD50 (rats; subcutaneously, rats, listed as hydrochloride derivative)?
A: 2984 mg/kg

Q: What about the “amount of protein trapping (radiolabeled albumin bound to collagen beads)” value (gelatin (collagen)) of the same compound?
A: greatly reduced
